Measurements as given in patent US20260275319A1, “ARCHAEAL PEPTIDE RECOMBINASE – A NOVEL PEPTIDE LIGATING ENZYME” (MAX-PLANCK-GESELLSCHAFT ZUR FÖRDERUNG DER WISSENSCHAFTEN …, priority 2019, published 2026).

What was measured:
[1] = target: M. jannaschii Adriase^S1A; conditions: MST, 25° C., 10 nM FITC peptide, three independent measurements
Experimental: MST measurements were performed with a Monolith NT.115 (Nanotemper), using various MST power and laser intensity settings to test the general validity of the obtained data. The final results were obtained in three independent experiments and measured at a temperature of 25° C., using MST power 80% and laser intensity 40%.
In a second set of MST experiments, a more detailed analysis of the binding motif (FIG. 18A-F and table in FIG. 5B) was performed using synthetic peptides (Genscript) based on the M. jannaschii MtrA sequence. […] For the MST measurements, 10 nM of these peptides were mixed with a serial dilution of M. jannaschii Adriase^S1A and the experiment was otherwise performed as described for the M. jannaschii MtrA^Δ194-245-Adriase^S1A and the M. jannaschii MtrA^Δ174-245 Adriase^S1A interactions, above.

M. mazei Adriase = experiment: Ligation motif analysis with primary and secondary substrates; assay type: biochemical; conditions: 25 μM substrates, 400× molar excess over Adriase, 50° C.

M. jannaschii Adriase^S1A, sequence (as listed by the source): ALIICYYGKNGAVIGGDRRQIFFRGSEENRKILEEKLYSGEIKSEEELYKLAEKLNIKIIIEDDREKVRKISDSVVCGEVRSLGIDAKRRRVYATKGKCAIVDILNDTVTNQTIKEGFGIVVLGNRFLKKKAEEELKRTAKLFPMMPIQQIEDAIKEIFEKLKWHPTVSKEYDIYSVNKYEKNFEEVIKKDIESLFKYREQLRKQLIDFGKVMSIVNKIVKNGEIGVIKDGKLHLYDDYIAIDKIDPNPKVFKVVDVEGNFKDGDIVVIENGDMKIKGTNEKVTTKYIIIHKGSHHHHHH

For “KECLSKDPGAIDEDPFIIELKFITC [(5)KDPGA(10)]”, which KD [1] is on record?
Its KD is “as tightly as M. jannaschii MtrA^Δ194-245”.

With “PGAFDADP (Methanosarcina mazei Go1; M. mazei PGA(5); listed as Methanosarcina mazei) [M. mazei MtrA-derived secondary substrate peptide]” as the sequence, how does the “Adriase activity with substrate” value (M. mazei Adriase) read?
Its value is “No Adriase activity”.
